One series concerns Fibroblasts (BJ). Nature of the series: Safety, MTT test in fibroblasts. To be noted: 48 hours. It is filed as cell-based. The procedure: (§1) In order to test the safety of the compounds, both normal human cells were used: keratinocytes (HaCaT), fibroblasts (BJ), primary melanocytes that occur in the skin, as well as human cancer cells: the hepatocarcinoma line HepG2 and the neuroblastoma line SH-SY5Y, which are considered a model for the assessment of hepatocytotoxicity and neurocytotoxicity. The concentrations of the tested compounds in the range of 250-100 µM were used in the studies. The cell lines used in the research were purchased from the American Type Culture Collection (ATCC) and were cultured in media recommended by the manufacturer with the addition of FBS and antibiotics in an incubator ensuring appropriate culture conditions, i.e. humidity, temperature and CO2 concentration. Cells were seeded into multiwell plates and incubated with the test compounds for 48 hours. After this time, MTT and LDH tests were performed to assess cell viability. The MTT test is based on the ability to transform the substrate: [3-(4,5-dimethyl-2-thiazolyl)-2,5-diphenyl-2H-tetrazolium bromide into a colored product only by living cells. The absorbance at 570 nm, which corresponds to the absorption maximum for the product, is directly proportional to cell viability. The LDH test is based on testing the activity of the enzyme lactate dehydrogenase in the culture medium, which is released from cells as a result of damage to the cell membrane, e.g. as a result of cell death. Triton X-100 was used as a positive control in the test. The determination is colorimetric, the substrate is transformed by the released enzyme into a colored product, an increase in absorbance indicates a larger amount of the released enzyme, and thus confirms greater damage to cell membranes. Tables 7 and 8 present the results obtained, which correspond to the viability of cells incubated with the compounds in relation to the viability of cells constituting a control sample, i.e. incubated with the solvent (DMSO) at the same concentration as in the case of the groups tested in the MTT test or in relation to the results obtained for the Triton X-100 positive control in the LDH test. They indicate that the compounds are safe at the concentrations tested. Table 7. Viability of tested normal human cell lines: keratinocytes (HaCaT), fibroblasts (BJ) and primary melanocytes after incubation with the tested compounds - determination in the MTT test (% of solvent control ± SD) and LDH (percentage of positive control - Triton X-100.

A further series deals with Hepatocarcinoma HepG2. Nature of the series: Safety, LDH test in HepG2. To be noted: 48 hours, positive control Triton X-100. It is filed as cell-based. As for the experimental part:
as §1

Series [1] concerns Chinese hamster ovary cell line (CHO-K1). The series can be described thus: Genotoxicity in the micronucleus test in CHO-K1 cells. It is filed as cell-based.
In series [2] the test system is Balb/c 3T3 murine fibroblast cell line. Nature of the series: Phototoxicity in Balb/c 3T3 fibroblasts (neutral red uptake). The procedure:
Balb/c 3T3 cells, which are an immortalized murine fibroblast cell line, were purchased at ATTC and cultured in the medium recommended by the manufacturer (DMEM GlutaMAX, newborn calf serum (BCS), antibiotics). After multiplication, cells were placed in 96-well plates, which were incubated for 24 hours, after which all wells of the plates were washed with 150 µL of balanced salt solution (HBSS). Then, after drying the plates, 100 µL of a solution of the tested compounds in HBSS with 2% FBS was added to each well and incubated for an hour. After this time, some of the plates were irradiated using the Suntest CPS+ sunlight simulator from Atlas with appropriate filters cutting off radiation with a wavelength <320 nm (UVA radiation intensity 5 J/cm^2). The second part of the plates was placed in radiation-free conditions for the same period of time. After the exposure time, the liquid was removed from all plates and the wells were washed twice with 150 µL of HBSS, then supplemented with fresh culture medium and incubated for 24 hours in an incubator (37 °C, 5% CO2). Viability was assessed in the neutral red uptake test, which is based on the ability of the dye to penetrate only into living cells. Dye uptake was confirmed by absorbance measurement at 540 nm. […] The appropriate coefficients were also calculated: mean phototoxic effect (MPE) and photoirritation factor (PIF). PIF is the ratio of the IC50 values of unirradiated to irradiated cells, while MPE is based on the comparison of concentration-response curves. […]

On to `O=C(/C=C/c1ccc(Cl)cc1)NCCCO` [H-330/21, (2E)-3-(4-chlorophenyl)-N-(3-hydroxypropyl)prop-2-enamide], for which the “Fibroblasts (BJ) MTT” value in the series on Fibroblasts (BJ) (100 µM) was 100.54±5.01 % of solvent control; in the series on Fibroblasts (BJ) (150 µM), 94.85±3.51 % of solvent control; in the series on Fibroblasts (BJ) (200 µM), 85.52±3.08 % of solvent control; in the series with Fibroblasts (BJ) (250 µM), 76.51±1.80 % of solvent control. Besides, the “Hepatocarcinoma HepG2 LDH” value is reported as 5.38 percentage of positive control with Hepatocarcinoma HepG2 (100 µM), 4.90 percentage of positive control with Hepatocarcinoma HepG2 (150 µM), 12.16 percentage of positive control with Hepatocarcinoma HepG2 (200 µM) and 19.02 percentage of positive control with Hepatocarcinoma HepG2 (250 µM).

For `O=C(/C=C/c1ccccc1)NCCCCCCO` [H-425/21, (E)-N-(6-hydroxyhexyl)cinnamic acid amide], in series [1] (100 µM), the “DB (dicentric bridges in 1000 binucleate cells)” value (“DB” below) is given as 2.5 ± 0.7, the “MN (number of micronuclei in 1000 binucleate cells)” value (“MN” below) is 11.0 ± 4.2, the “NB (nuclear buds in 1000 binucleate cells)” value (“NB” below) is on record as 3.5 ± 0.7 and the “NDI (nuclear division index)” value was 1.56. In series [1] (150 µM), the “DB” value was 2.5 ± 2.1, the “MN” value stood at 11.5 ± 0.7, the “NB” value is given as 3.5 ± 0.7 and the “NDI (nuclear division index)” value was 1.52. Besides, in series [1] (200 µM), the “DB” value worked out at 4.5 ± 3.5, the “MN” value came to 12.5 ± 6.4, the “NB” value amounted to 5.5 ± 0.7 and the “NDI (nuclear division index)” value was found to be 1.60.

In the case of `O=C(/C=C/c1ccc(Cl)cc1)NCCO` [H-427/21, (2E)-3-(4-chlorophenyl)-N-(2-hydroxyethyl)prop-2-enamide], the “Fibroblasts (BJ) MTT” value in the series with Fibroblasts (BJ) (100 µM) is listed as 101.82±3.99 % of solvent control; in the series with Fibroblasts (BJ) (150 µM), 100.76±3.34 % of solvent control; with Fibroblasts (BJ) (200 µM), 100.37±3.92 % of solvent control; with Fibroblasts (BJ) (250 µM), 98.13±2.81 % of solvent control. In addition, the “Hepatocarcinoma HepG2 LDH” value is given as 3.09 percentage of positive control in the series on Hepatocarcinoma HepG2 (100 µM), 4.45 percentage of positive control in the series on Hepatocarcinoma HepG2 (150 µM), 5.98 percentage of positive control in the series with Hepatocarcinoma HepG2 (200 µM) and 13.51 percentage of positive control in the series with Hepatocarcinoma HepG2 (250 µM).

Take `O=C(/C=C/c1ccccc1)NCCCCCO` [Compound A-133, (2E)-N-(5-hydroxypentyl)-3-phenylprop-2-enamide]: the “DB” value amounted to 3.8 ± 2.8 in series [1] (100 µM), 3.7 ± 2.3 in series [1] (150 µM) and 3.3 ± 1.4 in series [1] (200 µM). For the same compound, the “MN” value in series [1] (100 µM) is recorded as 7.8 ± 2.9; in series [1] (150 µM), 6.0 ± 1.9; in series [1] (200 µM), 6.8 ± 3.2. Besides, the results for the “NB” value in series [1] (100 µM), in series [1] (150 µM) and in series [1] (200 µM) were 6.3 ± 3.7, 4.5 ± 3.3 and 4.7 ± 1.8, respectively. The entries for the “NDI (nuclear division index)” value in series [1] (100 µM), in series [1] (150 µM) and in series [1] (200 µM) were 1.64, 1.65 and 1.66, respectively. Also, in series [2] (Balb/c 3T3, neutral red uptake), the phototoxic potential result was “do not have phototoxic potential”. The PIF entry in series [2] (photoirritation factor: ratio of IC50 of unirradiated to irradiated cells) is “No phototoxicity”. Further, the “cytotoxicity towards the mouse fibroblasts” value in series [2] (with and without exposure to UVA) was “devoid of cytotoxicity”. Moreover, the “Fibroblasts (BJ) MTT” value in the series with Fibroblasts (BJ) (100 µM) is listed as 99.41±5.96 % of solvent control; in the series on Fibroblasts (BJ) (150 µM), 91.68±3.64 % of solvent control; in the series on Fibroblasts (BJ) (200 µM) it was 87.76±2.71 % of solvent control; with Fibroblasts (BJ) (250 µM), 82.50±3.99 % of solvent control. The “Hepatocarcinoma HepG2 LDH” value is on record as 5.31 percentage of positive control with Hepatocarcinoma HepG2 (100 µM), 7.07 percentage of positive control in the series with Hepatocarcinoma HepG2 (150 µM), 9.65 percentage of positive control in the series on Hepatocarcinoma HepG2 (200 µM) and 16.13 percentage of positive control in the series with Hepatocarcinoma HepG2 (250 µM).

Regarding `Cc1ccc(/C=C/C(=O)NCCCCCO)cc1` [H-415/21, (2E)-N-(5-hydroxypentyl)-3-(4-methylphenyl)prop-2-enamide], the “DB” value is reported as 1.5 ± 0.7 in series [1] (100 µM), 3.5 ± 2.1 in series [1] (150 µM) and 2.5 ± 0.7 in series [1] (200 µM). The “MN” value in series [1] (100 µM) came to 12.5 ± 0.7; in series [1] (150 µM), 12.0 ± 2.8; in series [1] (200 µM) it was 11.5 ± 3.5. Besides, the “NB” value is 5.0 ± 1.4 in series [1] (100 µM), 5.5 ± 2.1 in series [1] (150 µM) and 6.0 ± 1.4 in series [1] (200 µM). Further, the results for the “NDI (nuclear division index)” value in series [1] (100 µM), in series [1] (150 µM) and in series [1] (200 µM) were 1.54, 1.50 and 1.52, respectively. Besides, the “Fibroblasts (BJ) MTT” value in the series with Fibroblasts (BJ) (100 µM) is given as 102.12±2.71 % of solvent control; with Fibroblasts (BJ) (150 µM) it was 101.92±2.88 % of solvent control; with Fibroblasts (BJ) (200 µM), 96.13±3.64 % of solvent control; in the series on Fibroblasts (BJ) (250 µM) it was 92.86±4.30 % of solvent control. Besides, the “Hepatocarcinoma HepG2 LDH” value in the series on Hepatocarcinoma HepG2 (100 µM) was 3.90 percentage of positive control; in the series with Hepatocarcinoma HepG2 (150 µM) it was 7.24 percentage of positive control; with Hepatocarcinoma HepG2 (200 µM) it was 8.92 percentage of positive control; with Hepatocarcinoma HepG2 (250 µM), 15.47 percentage of positive control.

Values taken from EP4324461A1, “(E)-N-CINAMOYLAMINOALKANOLES WITH MELANOGENESIS INHIBITORY ACTIVITY” (UNIWERSYTET JAGIELLONSKI, priority 2022, dated 2024).
